Laboratory results reported in patent US12060349B2, “Glucosylceramide synthase inhibitors” (Genzyme Corporation, priority 2012, dated 2024).

Key:
[1] = target: T1, glucosylceramide synthase (Homo sapiens, UniProt Q16739); assay: microsomal assay measuring conversion of ceramide to glucosylceramide by HPLC (GCS IC50); format: biochemical; conditions: concentration causing 50% inhibition of glucosylceramide synthase activity
T1 construct: Microsomes were isolated from A375 human melanoma cells; endogenous in cells; host or cells: A375 human melanoma cells (microsomal fraction, 100,000 g pellet)
T1 sequence (Q16739 1-394): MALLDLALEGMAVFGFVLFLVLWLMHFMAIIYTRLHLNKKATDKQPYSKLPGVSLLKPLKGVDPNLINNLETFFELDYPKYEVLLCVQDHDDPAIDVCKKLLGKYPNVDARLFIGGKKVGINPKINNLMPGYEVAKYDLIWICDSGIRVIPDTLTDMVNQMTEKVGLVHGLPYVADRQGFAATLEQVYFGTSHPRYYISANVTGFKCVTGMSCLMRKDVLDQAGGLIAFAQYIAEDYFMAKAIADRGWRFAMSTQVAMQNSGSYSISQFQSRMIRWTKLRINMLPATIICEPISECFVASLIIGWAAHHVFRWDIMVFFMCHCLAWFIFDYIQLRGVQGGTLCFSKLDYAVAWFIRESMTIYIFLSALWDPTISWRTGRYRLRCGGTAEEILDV
Outline: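 IC50 is the compound concentration halving glucosylceramide synthase activity. Activity was measured in microsomes, with HPLC quantifying glucosylceramide formed from ceramide.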

[2] = tested on: GM3 expression on the cell surface, B16 mouse melanoma cells; assay: cell based phenotypic assay, cell surface GM3 by antibody mediated immunofluorescence, B16 (GM3 B16 IC50); conditions: Mus musculus, B16 mouse melanoma cells; 50% inhibition of GM3 expression on the cell surface; read-out: GM3 B16 IC50
Outline: (§1)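 Two melanoma lines, mouse B16 and human C32, were treated and surface GM3 quantified by antibody immunofluorescence for IC50. A parallel viability readout gives the concentration killing 50% of cells, with values over 10 indicating no cell death.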

[3] = tested on: GM3 expression on the cell surface, C32 human melanoma cells; assay: cell based phenotypic assay, cell surface GM3 by antibody mediated immunofluorescence, C32 (GM3 C32 IC50); conditions: Homo sapiens, C32 human melanoma cells; 50% inhibition of GM3 expression on the cell surface; read-out: GM3 C32 IC50
Outline: as §1

B16 mouse melanoma cells = assay: cell viability in the B16 cell-based assay (Viability, B16 IC50); conditions: Mus musculus, B16, B16 cells; concentration causing 50% cell death; values greater than 10 represent a lack of cell death; read-out: Viability, B16 IC50
Outline: (§2)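 Viability readouts were run alongside the GM3 cell-surface assay in the same B16 and C32 cultures. A figure above 10 indicates no cell death.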

C32 human melanoma cells = assay: cell viability in the C32 cell-based assay (Viability, C32 IC50); conditions: Homo sapiens, C32, C32 cells; concentration causing 50% cell death; values greater than 10 represent a lack of cell death; read-out: Viability, C32 IC50
Outline: as §2

What does the source list for `CN(C(=O)C1CCN(c2nccc(-c3ccc(F)cc3)n2)CC1)C1CN2CCC1CC2` (centres unmarked) [Example 109, 1-(4-(4-Fluorophenyl)pyrimidin-2-yl)-N-methyl-N-(quinuclidin-3-yl)piperidine-4-carboxamide]?
IC50 [1]: 40.1 nM; IC50 [2]: 2230 nM; IC50 [3]: 8.99 nM; IC50 (B16 mouse melanoma cells): 9530 nM; IC50 (C32 human melanoma cells): 3160 nM

For `O=C(OC1CCN2CCC1CC2)C1CCN(c2nccc(-c3ccc(F)cc3)n2)CC1` (centres unmarked) [Example 110, 1-Azabicyclo[3.2.2]nonan-4-yl 1-(4-(4-fluorophenyl)pyrimidin-2-yl)piperidine-4-carboxylate], which IC50 [1] is on record?
Its IC50 is 1.22 nM.

What about the IC50 [2] of the same molecule?
Its IC50 is 528 nM.

What about the IC50 [3] of the same molecule?
The IC50 was 2.39 nM.

And the IC50 (B16 mouse melanoma cells)?
Its IC50 is 3810 nM.

And the IC50 (C32 human melanoma cells)?
Its IC50 is 1000 nM.

Which results are given for `COCCCOc1ccc(-c2nc(N3CC(C(=O)NC4(C)CCN5CCC4CC5)C3)ncc2F)cc1` (centres unmarked) [Example 111, 1-(5-Fluoro-4-(4-(3-methoxypropoxy)phenyl)pyrimidin-2-yl)-N-(4-methyl-1-azabicyclo[3.2.2]nonan-4-yl)azetidine-3-carboxamide]?
IC50 [1]: 2 nM; IC50 [2]: 119 nM; IC50 [3]: 0.19 nM; IC50 (B16 mouse melanoma cells): 3650 nM; IC50 (C32 human melanoma cells): 1000 nM

With `CC1(NC(=O)C2CN(c3ncc(F)c(-c4ccc(F)cc4)n3)C2)CCN2CCC1CC2` (centres unmarked) [Example 112, 1-(5-Fluoro-4-(4-fluorophenyl)pyrimidin-2-yl)-N-(4-methyl-1-azabicyclo[3.2.2]nonan-4-yl)azetidine-3-carboxamide] as the molecule, how does the IC50 [1] read?
The IC50 was 7.37 nM.

What about the IC50 [2] of the same molecule?
The IC50 was 122 nM.

And the IC50 [3]?
Its IC50 is 0.238 nM.

And the IC50 (B16 mouse melanoma cells)?
The IC50 was 7240 nM.

What about the IC50 (C32 human melanoma cells) of the same molecule?
Its IC50 is 316 nM.

Which results are given for `CC1(NC(=O)C2CN(c3nccc(-c4ccc(F)cc4)n3)C2)CCN2CCC1CC2` (centres unmarked) [Example 113, 1-(4-(4-Fluorophenyl)pyrimidin-2-yl)-N-(4-methyl-1-azabicyclo[3.2.2]nonan-4-yl)azetidine-3-carboxamide]?
IC50 [1]: 8.31 nM; IC50 [2]: 546 nM; IC50 [3]: 0.884 nM; IC50 (B16 mouse melanoma cells): ≥ 10000 nM; IC50 (C32 human melanoma cells): 316 nM

Which IC50 [1] does the source give for `CC1(NC(=O)C2CN(c3cccc(-c4ccc(F)cc4)c3)C2)CCN2CCC1CC2` (centres unmarked) [Example 114, 1-(4′-Fluoro-[1,1′-biphenyl]-3-yl)-N-(4-methyl-1-azabicyclo[3.2.2]nonan-4-yl)azetidine-3-carboxamide] here?
The IC50 was 51 nM.

And the IC50 [2]?
Its IC50 is 272 nM.

And the IC50 [3]?
The IC50 was 11.1 nM.

What about the IC50 (B16 mouse melanoma cells) of the same molecule?
Its IC50 is 3460 nM.

And the IC50 (C32 human melanoma cells)?
Its IC50 is 1000 nM.

Which IC50 [1] does the source give for `CC1(NC(=O)C2CCN(c3nccc(Oc4ccc(F)cc4)n3)CC2)CCN2CCC1CC2` (centres unmarked) [Example 115, 1-(4-(4-Fluorophenoxy)pyrimidin-2-yl)-N-(4-methyl-1-azabicyclo[3.2.2]nonan-4-yl)piperidine-4-carboxamide] here?
The IC50 was 2.45 nM.

And the IC50 [2]?
Its IC50 is 8.94 nM.

And the IC50 [3]?
Its IC50 is 0.14 nM.

What about the IC50 (B16 mouse melanoma cells) of the same molecule?
Its IC50 is 9300 nM.

What about the IC50 (C32 human melanoma cells) of the same molecule?
Its IC50 is 46.4 nM.

Which IC50 [1] does the source give for `CC1(NC(=O)C2(F)CCN(c3nccc(Oc4ccc(F)cc4)n3)CC2)CCN2CCC1CC2` (centres unmarked) [Example 116, 4-Fluoro-1-(4-(4-fluorophenoxy)pyrimidin-2-yl)-N-(4-methyl-1-azabicyclo[3.2.2]nonan-4-yl)piperidine-4-carboxamide] here?
The IC50 was 1.43 nM.

And the IC50 [2]?
The IC50 was 15.9 nM.

And the IC50 [3]?
Its IC50 is 0.155 nM.

What about the IC50 (B16 mouse melanoma cells) of the same molecule?
The IC50 was 5720 nM.

And the IC50 (C32 human melanoma cells)?
The IC50 was 100 nM.

Which IC50 [1] does the source give for `CC1(NC(=O)C2(F)CCN(c3ncnc(Oc4ccc(F)cc4)n3)CC2)CCN2CCC1CC2` (centres unmarked) [Example 117, 4-Fluoro-1-(4-(4-fluorophenoxy)-1,3,5-triazin-2-yl)-N-(4-methyl-1-azabicyclo[3.2.2]nonan-4-yl)piperidine-4-carboxamide] here?
The IC50 was 168 nM.

And the IC50 [2]?
Its IC50 is 88.4 nM.

What about the IC50 [3] of the same molecule?
Its IC50 is 9.05 nM.

And the IC50 (B16 mouse melanoma cells)?
The IC50 was at least 10000 nM.

What about the IC50 (C32 human melanoma cells) of the same molecule?
The IC50 was 1000 nM.

Which results are given for `COCCOc1ccc(Oc2nc(N3CCC(F)(C(=O)NC4(C)CN5CCC4CC5)CC3)ncc2F)cc1` (centres unmarked) [Example 118, 4-Fluoro-1-(5-fluoro-4-(4-(2-methoxyethoxy)phenoxy)pyrimidin-2-yl)-N-(3-methylquinuclidin-3-yl)piperidine-4-carboxamide]?
IC50 [1]: 2.54 nM; IC50 [2]: 63.4 nM; IC50 [3]: 1.16 nM; IC50 (B16 mouse melanoma cells): 4640 nM; IC50 (C32 human melanoma cells): 1000 nM
